The IC50 is the concentration that inhibits the measured activity by half. In general, stoichiometry N refers to a count of units in the complex or per binding partner.

The target of one data set is T1, ACAT2 (Homo sapiens, UniProt O75908).
T1 sequence (O75908 1-522): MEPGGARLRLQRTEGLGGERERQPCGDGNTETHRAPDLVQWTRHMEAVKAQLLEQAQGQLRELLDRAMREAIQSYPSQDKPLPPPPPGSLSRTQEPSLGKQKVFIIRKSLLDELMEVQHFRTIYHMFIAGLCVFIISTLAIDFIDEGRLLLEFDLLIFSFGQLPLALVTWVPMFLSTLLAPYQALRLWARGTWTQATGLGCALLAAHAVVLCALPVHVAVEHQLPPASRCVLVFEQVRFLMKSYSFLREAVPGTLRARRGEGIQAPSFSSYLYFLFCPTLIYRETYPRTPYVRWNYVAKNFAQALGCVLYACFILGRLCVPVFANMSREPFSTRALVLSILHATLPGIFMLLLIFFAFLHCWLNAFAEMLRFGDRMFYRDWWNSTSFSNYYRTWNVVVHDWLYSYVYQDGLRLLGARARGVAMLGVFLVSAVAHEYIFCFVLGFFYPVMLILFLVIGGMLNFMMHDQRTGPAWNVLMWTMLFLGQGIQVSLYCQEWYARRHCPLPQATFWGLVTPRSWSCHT
The data set can be described thus: cryo-EM structure. It counts as biochemical.

The data set “cryo-EM structure” deals with the molecule itself. The data set can be described thus: cryo-EM structure.

`CC(C)c1cccc(C(C)C)c1NC(=O)NCC1(c2ccc(N(C)C)cc2)CCCC1` [nevanimibe] displayed an IC50 on ACAT2 of 710 nM.

B1: human ACAT2 (acyl-CoA:cholesterol acyltransferase 2) (enzyme)
chain: EPGGARLRLQRTEGLGGERERQPCGDGNTETHRAPDLVQWTRHMEAVKAQLLEQAQGQLRELLDRAMREAIQSYPSQDKPLPPPPPGSLSRTQEPSLGKQKVFIIRKSLLDELMEVQHFRTIYHMFIAGLCVFIISTLAIDFIDEGRLLLEFDLLIFSFGQLPLALVTWVPMFLSTLLAPYQALRLWARGTWTQATGLGCALLAAHAVVLCALPVHVAVEHQLPPASRCVLVFEQVRFLMKSYSFLREAVPGTLRARRGEGIQAPSFSSYLYFLFCPTLIYRETYPRTPYVRWNYVAKNFAQALGCVLYACFILGRLCVPVFANMSREPFSTRALVLSILHATLPGIFMLLLIFFAFLHCWLNAFAEMLRFGDRMFYRDWWNSTSFSNYYRTWNVVVHDWLYSYVYQDGLRLLGARARGVAMLGVFLVSAVAHEYIFCFVLGFFYPVMLILFLVIGGMLNFMMHDQRTGPAWNVLMWTMLFLGQGIQVSLYCQEWYARRHCPLPQATFWGLVTPRSWSCHT
As for B1, the “stoichiometry N” value in “cryo-EM structure” was 4.

The record behind these values is paper PMC8642284 (Structure (London, England : 1993), 2021).
